From US4663453A, “Benzo[b]pyrrolo[3,2,1-jk][1,4]benzodiazepines having dopamine receptor activity” (Hoechst-Roussel Pharmaceuticals Inc., priority 1985, dated 1987)
Counter-ions that a name gives are not always drawn.

What was measured:
[1] = system: apomorphine climbing; assay: climbing mice assay (antipsychotic activity, apomorphine-induced climbing); format: in vivo, mice (CK-1 male); settings: Mus musculus, po, apomorphine 1.5 mg/kg sc challenge
Description: Antipsychotic activity is determined in the climbing mice assay by a method similar to those described by P. Protais, et al., Psychopharmacol., 50, 1 (1976) and B. Costall, Eur. J. Pharmacol., 50, 39 (1978).
The subject CK-1 male mice (23-27 grams) are group-housed under standard laboratory conditions. The mice are individually placed in wire mesh stick cages (4"×4"×10") and are allowed one hour for adaptation and exploration of the new environment. Then apomorphine is injected subcutaneously at 1.5 mg/kg, a dose causing climbing in all subjects for 30 minutes. Compounds to be tested for antipsychotic activity are injected intraperitoneally or given oral doses at various time intervals, e.g. 30 minutes, 60 minutes, etc. prior to the apomorphine challenge at a screening dose of 10-60 mg/kg.
For evaluation of climbing, 3 readings are taken at 10, 20 and 30 minutes after apomorphine administration according to the following scale:
4 paws on bottom (no climbing)
2 paws on the wall (rearing)
4 paws on the wall (full climb)
Mice consistently climbing before the injection of apomorphine will be discarded.
With full-developed apomorphine climbing, the animals are hanging on to the cage walls, rather motionless, over longer periods of time. By contrast, climbs due to mere motor stimulation usually only last a few seconds.
The climbing scores are individually totaled (maximal score: 6 per mouse over 3 readings) and the total score of the control group (vehicle intraperitoneally--apomorphine subcutaneously) is set to 100%. ED50 values with 95% confidence limits, calculated by a Linear Regression Analysis, of some of the instant benzopyrrolobenzodiazepines as well as a standard antipsychotic agent are presented in Table 1.

[2] = system: phenylquinone induced writhing; assay: phenyl-p-quinone writhing assay in mice (analgesia); format: in vivo; settings: Mus musculus, sc, dose for approximately 50% inhibition of writhing
Excerpt: Some of the benzopyrrolobenzodiazepines and quinobenzodiazepines of the present invention are also useful as analgetics due to their ability to alleviate pain in mammals. […] Exptl. Biol Med., 95 729 (1957)]. Thus, for instance, the subcutaneous dose effecting an approximately 50% inhibition of writhing (ED50) in mice produced in this assay is as shown in Table 2.

SMILES | ED50 [1] | ED50 [2]
CN1CCN(C2=Nc3ccccc3-n3ccc4cc(Cl)cc2c43)CC1 [4-Chloro-6-(4-methyl-1-piperazinyl)benzo[b]pyrrolo[3,2,1-jk][1,4]benzodiazepine] | 13.4 mg/kg | –
CN(C)CCN(C)C1=Nc2cc(Br)ccc2N2CCc3cccc1c32 [9-Bromo-6-[(2-dimethylamino)-N-methylethylamino]-1,2-dihydrobenzo[b]pyrrolo[3,2,1-jk][1,4]benzodiazepine Dimaleate salt] | – | 8.1 mg/kg
CN1CCN(C2=Nc3cc(Cl)ccc3N3CCc4cccc2c43)CC1 [9-chloro-6-(4-methyl-1-piperazinyl)-1,2-dihydrobenzo[b]pyrrolo[3,2,1-jk][1,4]benzodiazepine] | – | 4.1 mg/kg
CN1CCN(C2=Nc3cc(Br)ccc3N3CCc4cccc2c43)CC1 [9-Bromo-6-(4-methyl-1-piperazinyl)-1,2-dihydrobenzo[b]pyrrolo[3,2,1-jk][1,4]benzodiazepine] | 30.8 mg/kg | –
CN1CCN(C2=Nc3cc(Br)ccc3-n3ccc4cccc2c43)CC1 [9-Bromo-6-(4-methyl-1-piperazinyl)benzo[b]pyrrolo[3,2,1-jk][1,4]benzodiazepine] | 13.5 mg/kg | 0.72 mg/kg
Cc1ccc2c(c1)N=C(N1CCN(C)CC1)c1cccc3c1N2CC3 [9-Methyl-6-(4-methyl-1-piperazinyl)-1,2-dihydrobenzo[b]pyrrolo[3,2,1-jk][1,4]benzodiazepine] | 25.5 mg/kg | 0.34 mg/kg
CCC(=O)O[C@](Cc1ccccc1)(c1ccccc1)[C@H](C)CN(C)C [propoxyphene, reference compound] | – | 3.9 mg/kg
CN1CCN(C2=Nc3cc(Cl)ccc3Nc3ccccc32)CC1 [clozapine, reference compound] | 23.2 mg/kg | –
